The source of these data is ChEMBL document CHEMBL5576084, “Development of chromone-thiazolidine-2,4-dione Knoevenagel conjugates as apoptosis inducing agents” (Bioorg Med Chem Lett, 2024).

Activity calls are given as the source filed them. The rule behind the calls is not given here. Where only a bound is given, the exact number is not on record here.

For orientation: IC50 means the concentration at which inhibition is half-maximal. As usually defined, the inhibition is how much of the control response was suppressed.

The nature of series [1]: Cytotoxicity against HEK293 cells assessed as inhibition of cell growth incubated for 48 hrs by MTT assay. Type of series: toxicity, cell-based. The note with it: human. (Tetrazolium assays rely on reduction of a dye to a coloured formazan, in cell work by metabolically active cells.)
The test system of series [2] is A549. The series can be described thus: Induction of apoptosis in human A549 cells assessed as increase in late apoptotic cells by measuring orange red signals at 3 to 9 uM by acridine orange/EtBr staining based analysis. Type of series: functional, cell-based. The note with it: dose 3-9 µM.
Series [3] concerns A549. In words: Induction of apoptosis in human A549 cells assessed as late apoptotic cells at 3 uM by Annexin V-FITC/PI staining based flow cytometric analysis (reference value: 0.19 %). Type of series: functional. For orientation: In flow cytometry, cells or beads pass a laser one at a time.
Series [4] concerns A549. In words: Induction of apoptosis in human A549 cells assessed as early apoptotic cells at 6 uM by Annexin V-FITC/PI staining based flow cytometric analysis (reference value: 0.32 %). Type of series: functional.
Series [5] relates to A549. The series can be described thus: Induction of apoptosis in human A549 cells assessed as increase in necrotic cells by measuring red signals at 3 to 9 uM by acridine orange/EtBr staining based analysis. Type of series: functional, cell-based. The note with it: dose 3-9 µM.
Series [6] concerns A549. The series can be described thus: Induction of DNA damage in human A549 cells assessed as increase in red fluorescence at 3 to 9 uM by acridine orange/EtBr staining based analysis. The settings on record: dose 3-9 µM. Type of series: functional, cell-based.
In series [7] the test system is A549. In words: Induction of apoptosis in human A549 cells assessed as early apoptotic cells at 9 uM by Annexin V-FITC/PI staining based flow cytometric analysis (reference value: 0.32 %). Type of series: functional.
Series [8] concerns A549. The series can be described thus: Cell cycle arrest in human A549 cells assessed as accumulation of cells at G2/M phase at 6 uM by PI staining based flow cytometric analysis (reference value: 11.5 %). Type of series: functional.
Series [9] has as its system A549. The series can be described thus: Induction of DNA damage in human A549 cells assessed as DNA condensation by measuring increase in fluorescence intensity at 3 to 9 uM by DAPI staining based fluorescence microscopic analysis. Type of series: functional, cell-based. The note with it: dose 3-9 µM.
Series [10] deals with A549. In words: Cytotoxicity against human A549 cells assessed as inhibition of cell growth incubated for 48 hrs by MTT assay. The settings on record: A549, 48 h. Type of series: functional, cell-based.
Series [11] relates to A549. In words: Induction of apoptosis in human A549 cells assessed as late apoptotic cells at 6 uM by Annexin V-FITC/PI staining based flow cytometric analysis (reference value: 0.19 %). Type of series: functional.
Series [12] has as its system A549. In words: Induction of apoptosis in human A549 cells assessed as reduction in Bcl-2 expression at 6 uM by PI staining based flow cytometric analysis relative to control. Type of series: functional. Details: scale not given: the % may be the effect or the level left.
Another series deals with HCT-116. In words: Cytotoxicity against human HCT-116 cells assessed as inhibition of cell growth incubated for 48 hrs by MTT assay. The note with it: HCT-116, 48 h. Type of series: functional, cell-based.
Series [13] deals with A549. In words: Induction of apoptosis in human A549 cells assessed as necrotic cells at 3 uM by Annexin V-FITC/PI staining based flow cytometric analysis (reference value: 0.46 %). Type of series: functional.
In series [14] the test system is A549. The series can be described thus: Induction of apoptosis in human A549 cells assessed as late apoptotic cells at 9 uM by Annexin V-FITC/PI staining based flow cytometric analysis (reference value: 0.19 %). Type of series: functional.
For the next series, the system named is MCF7. The series can be described thus: Cytotoxicity against human MCF7 cells assessed as inhibition of cell growth incubated for 48 hrs by MTT assay. The settings on record: MCF7, 48 h. Type of series: functional, cell-based.
The test system of series [15] is A549. In words: Induction of DNA damage in human A549 cells assessed as decrease in green fluorescence at 3 to 9 uM by acridine orange/EtBr staining based analysis. Type of series: functional, cell-based. The settings on record: dose 3-9 µM.
A further series relates to HepG2. In words: Cytotoxicity against human HepG2 cells assessed as inhibition of cell growth incubated for 48 hrs by MTT assay. Type of series: functional, cell-based. The note with it: HepG2, 48 h.
The subject of series [16] is A549. The series can be described thus: Induction of apoptosis in human A549 cells assessed as necrotic cells at 9 uM by Annexin V-FITC/PI staining based flow cytometric analysis (reference value: 0.46 %). Type of series: functional.
Series [17] has as its system A549. The series can be described thus: Cell cycle arrest in human A549 cells assessed as accumulation of cells at G2/M phase at 9 uM by PI staining based flow cytometric analysis (reference value: 11.5 %). Type of series: functional.
Series [18] concerns A549. In words: Induction of apoptosis in human A549 cells assessed as increase in yellowish green intensity at 3 to 9 uM by acridine orange/EtBr staining based analysis. Type of series: functional, cell-based. The settings on record: dose 3-9 µM.
Series [19] concerns A549. In words: Induction of apoptosis in human A549 cells assessed as reduction in Bcl-2 expression at 9 uM by PI staining based flow cytometric analysis relative to control. Type of series: functional. Also on record: scale not given: the % may be the effect or the level left.
The test system of series [20] is A549. In words: Induction of ROS generation in human A549 cells assessed as fold change at 3 uM by DCFDA-H2 fluorescent dye based flow cytometric analysis relative to control. Type of series: functional.
For series [21], the system named is A549. In words: Induction of ROS generation in human A549 cells assessed as fold change at 9 uM by DCFDA-H2 fluorescent dye based flow cytometric analysis relative to control. Type of series: functional.
The test system of a further series is SK-MEL-28. The series can be described thus: Cytotoxicity against human SK-MEL-28 cells assessed as inhibition of cell growth incubated for 48 hrs by MTT assay. Type of series: functional, cell-based. The settings on record: SK-MEL-28, 48 h.
Series [22] concerns A549. In words: Cell cycle arrest in human A549 cells assessed as accumulation of cells at G2/M phase at 3 uM by PI staining based flow cytometric analysis (reference value: 11.5 %). Type of series: functional.
For series [23], the system named is A549. The series can be described thus: Induction of apoptosis in human A549 cells assessed as appearance of shrunken cells with fragmented nucleus at 3 to 9 uM by DAPI staining based fluorescence microscopic analysis. The note with it: dose 3-9 µM. Type of series: functional, cell-based.
Series [24] has as its system A549. The series can be described thus: Induction of apoptosis in human A549 cells assessed as necrotic cells at 6 uM by Annexin V-FITC/PI staining based flow cytometric analysis (reference value: 0.46 %). Type of series: functional.
The test system of series [25] is A549. The series can be described thus: Induction of apoptosis in human A549 cells assessed as reduction in Bcl-2 expression at 3 uM by PI staining based flow cytometric analysis relative to control. Details: scale not given: the % may be the effect or the level left. Type of series: functional.
Series [26] relates to A549. The series can be described thus: Induction of apoptosis in human A549 cells assessed as early apoptotic cells at 3 uM by Annexin V-FITC/PI staining based flow cytometric analysis (reference value: 0.32 %). Type of series: functional.
Series [27] relates to A549. The series can be described thus: Induction of ROS generation in human A549 cells assessed as fold change at 6 uM by DCFDA-H2 fluorescent dye based flow cytometric analysis relative to control. Type of series: functional.
Series [28] concerns A549. The series can be described thus: Induction of apoptosis in human A549 cells assessed as reduction in green intensity at 3 to 9 uM by acridine orange/EtBr staining based analysis. Type of series: functional, cell-based. The settings on record: dose 3-9 µM.
Series [29] relates to A549. The series can be described thus: Induction of apoptosis in human A549 cells assessed as increase in late apoptotic cells by measuring orange red signals at 1.5 uM by acridine orange/EtBr staining based analysis. Type of series: functional, cell-based.
The test system of series [30] is A549. The series can be described thus: Induction of apoptosis in human A549 cells assessed as reduction in green intensity at 1.5 uM by acridine orange/EtBr staining based analysis. Type of series: functional, cell-based.
The subject of series [31] is A549. The series can be described thus: Induction of apoptosis in human A549 cells assessed as necrotic cells at 1.5 uM by Annexin V-FITC/PI staining based flow cytometric analysis (reference value: 0.46 %). Type of series: functional.
The subject of series [32] is A549. The series can be described thus: Cytotoxicity against human A549 cells assessed as inhibition of cell growth. Type of series: functional, cell-based.
The subject of series [33] is A549. The series can be described thus: Induction of apoptosis in human A549 cells assessed as inhibition of Bcl-2 expression at 1.5 uM by PI staining based flow cytometric analysis relative to control. Type of series: functional.
For series [34], the system named is A549. In words: Induction of apoptosis in human A549 cells assessed as early apoptotic cells at 1.5 uM by Annexin V-FITC/PI staining based flow cytometric analysis (reference value: 0.32 %). Type of series: functional.
The subject of series [35] is A549. The series can be described thus: Induction of ROS generation in human A549 cells assessed as fold change at 1.5 uM by DCFDA-H2 fluorescent dye based flow cytometric analysis relative to control. Type of series: functional.
Series [36] concerns A549. In words: Cell cycle arrest in human A549 cells assessed as increase in G0/G1phase cell frequency at 1.5 uM by PI staining based flow cytometric analysis relative to control. Type of series: functional.
Series [37] has as its system A549. In words: Induction of apoptosis in human A549 cells assessed as increase in yellowish green intensity at 1.5 uM by acridine orange/EtBr staining based analysis. Type of series: functional, cell-based.
Series [38] deals with A549. In words: Induction of apoptosis in human A549 cells assessed as late apoptotic cells at 1.5 uM by Annexin V-FITC/PI staining based flow cytometric analysis (reference value: 0.19 %). Type of series: functional.
Series [39] deals with A549. The series can be described thus: Induction of apoptosis in human A549 cells assessed as increase in necrotic cells by measuring red signals at 1.5 uM by acridine orange/EtBr staining based analysis. Type of series: functional, cell-based.

Turning to `COc1ccc(C(=O)CN2C(=O)S/C(=C\c3coc4cc(Br)ccc4c3=O)C2=O)cc1`, the IC50 at 48 h in [1] turned out to be 14.1 µM. Further, the outcome with A549 [2], with A549 [5], in the series with A549 [6], in the series with A549 [9], with A549 [15] and with A549 [18] was Active. Also, the result in the series with A549 [23] and in the series on A549 [28] was Active. Besides, the Activity in the series on A549 [3] came to 0.98%; in the series on A549 [4], 3.1%; in the series on A549 [7], 10.9%; in the series on A549 [8], 18.4%; in the series on A549 [11], 2.2%; in the series on A549 [12], 38.2%. The Activity in the series on A549 [13] was 0.27%; in the series with A549 [14], 6.6%; with A549 [16], 0.29%; in the series with A549 [17], 21.6%; in the series with A549 [19] it was 79.1%; in the series on A549 [22], 18.08%. In addition, the Activity turned out to be 0.3% with A549 [24], 31.7% in the series on A549 [25] and 1.94% in the series with A549 [26]. The IC50 in the series with A549 [10] is 6.1 µM; with HCT-116, greater than 10 µM; with MCF7, 8.9 µM; with HepG2, greater than 10 µM; with SK-MEL-28, greater than 10 µM. Also, the “fold change (FC)” value with A549 [20] is 1.07; in the series on A549 [21] it was 8.9; in the series with A549 [27] it was 1.4.
Take `CC1(C)CCC(CN2CCN(c3ccc(C(=O)NS(=O)(=O)c4ccc(NCC5CCOCC5)c([N+](=O)[O-])c4)c(Oc4cnc5[nH]ccc5c4)c3)CC2)=C(c2ccc(Cl)cc2)C1` [VENETOCLAX]: the outcome in the series on A549 [29], in the series with A549 [30], in the series with A549 [37] and with A549 [39] was Active. The Activity turned out to be 5.5% in the series on A549 [31], 1.5% with A549 [34], 6.9% with A549 [36] and 4.9% in the series with A549 [38]. The 50% inhibitory concentration (IC50) with A549 [32] turned out to be 1.5 µM. Besides, the inhibition at 1.5 µM in the series on A549 [33] is 61.7%. The “fold change (FC)” value in the series with A549 [35] was determined as 9.53.
